Results published in patent US11285161B2, “Method and composition for treating mental disorder and pain associated with nerve damage” (City University of Hong Kong, priority 2019, dated 2022).

What was measured:
CCK1 receptor = target: T1, CCK1 receptor (Homo sapiens, UniProt P32238); details: read-out: IC50 to the CCK1 receptor; cited from earlier work
T1 sequence (P32238 1-428): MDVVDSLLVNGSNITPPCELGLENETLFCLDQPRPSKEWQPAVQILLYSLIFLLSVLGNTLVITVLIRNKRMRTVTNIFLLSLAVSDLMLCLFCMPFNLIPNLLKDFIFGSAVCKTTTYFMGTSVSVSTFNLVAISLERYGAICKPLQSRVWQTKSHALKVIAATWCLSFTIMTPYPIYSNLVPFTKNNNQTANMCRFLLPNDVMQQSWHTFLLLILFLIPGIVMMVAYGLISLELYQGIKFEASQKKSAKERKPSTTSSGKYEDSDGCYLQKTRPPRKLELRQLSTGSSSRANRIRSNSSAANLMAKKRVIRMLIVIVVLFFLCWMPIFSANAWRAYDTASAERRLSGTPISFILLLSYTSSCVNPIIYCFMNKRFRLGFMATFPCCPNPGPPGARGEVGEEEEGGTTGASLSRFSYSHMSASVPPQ

[1] = test system: spared nerve injury (SNI) mice; assay: Tail suspension test in spared nerve injury (SNI) mice; assay type: in vivo, mouse; details: 30 ng/kg Day 7-Day 30, tested Day 40 (10 days after discontinuation), vs SNI-saline and Sham-saline, FIG. 1A
Source text: (§1) The antidepressant and analgesic activities of the compound of formula (IIb) (referred to as YM022) and the compound of formula (IIIb) (referred to as YF476) were investigated in a mouse model of spared nerve injury (SNI). The SNI model is a partial denervation model in which the injured nerves produce consistent pain hypersensitivity in the territory of the spared sural nerve, wherein the spared nerve injury can provoke depressive-like behaviors. In the experiment, depressive-like behaviors were assessed by a tail suspension test and monitoring body weight. Responses to pain were tested by measuring the sensitivity to mechanical stimulation by von Frey filaments.
(§2) For the SNI surgery, the mice were anesthetized by intraperitoneal injection of ketamine (100 mg/kg) and xylazine (15 mg/kg). […]
(§3) After SNI surgery (Day 0), the mice were treated with the compound of formula (IIb) (referred to as YM022) and the compound of formula IIIb (referred to as YF476), both at 30 ng/kg, for 24 days (Day 7-Day 30). The bodyweight of the mice were measured (FIG. 1B) and the tail suspension test (FIG. 1A) was carried out on Day 40 to assess the depressive status. […] A blinded observer monitored the test for 6 min and recorded the immobility time.

CCK2 receptor [2] = target: T2, CCK2 receptor (Homo sapiens, UniProt P32239); details: cited from earlier work
T2 sequence (P32239 1-447): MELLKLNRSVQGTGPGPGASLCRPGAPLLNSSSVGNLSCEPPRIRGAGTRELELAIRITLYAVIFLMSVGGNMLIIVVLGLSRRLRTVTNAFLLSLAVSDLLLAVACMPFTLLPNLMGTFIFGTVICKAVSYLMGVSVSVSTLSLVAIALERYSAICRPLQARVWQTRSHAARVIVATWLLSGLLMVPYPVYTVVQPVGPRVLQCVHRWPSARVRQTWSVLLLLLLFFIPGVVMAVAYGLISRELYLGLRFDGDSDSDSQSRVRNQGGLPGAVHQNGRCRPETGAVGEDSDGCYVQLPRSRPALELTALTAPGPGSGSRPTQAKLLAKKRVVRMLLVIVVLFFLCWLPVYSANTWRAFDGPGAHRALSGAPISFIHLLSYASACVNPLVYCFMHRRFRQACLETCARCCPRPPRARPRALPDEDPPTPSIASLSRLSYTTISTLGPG

mice [3] = assay: Acute forced swim test; assay type: in vivo, mouse; details: 30 μg/kg intraperitoneally 30 minutes before test, 5-minute test, vs saline, FIG. 3B
Experimental: In the forced swim test, mice were forced to swim in a narrow cylinder from which they cannot escape. A Plexiglas cylinder (13 cm diameter and 24 cm high) containing water (22° C.±2° C.) to a depth of 10 cm was used. The mice were injected intraperitoneally with YM022 (30 μg/kg), YF476 (30 μg/kg) or saline 30 minutes before the test. After placing the animals in the cylinders, the duration of immobility during the 5-minute test were measured.

CCK2 receptor [4] = target: T2, CCK2 receptor
mice [5] = assay: Acute tail suspension test; assay type: in vivo, mouse; details: 3 μg/kg or 30 μg/kg intraperitoneally 30 minutes before test, vs saline, FIG. 3A
Experimental: After SNI surgery (Day 0), the mice were treated with the compound of formula (IIb) (referred to as YM022) and the compound of formula IIIb (referred to as YF476), both at 30 ng/kg, for 24 days (Day 7-Day 30). The bodyweight of the mice were measured (FIG. 1B) and the tail suspension test (FIG. 1A) was carried out on Day 40 to assess the depressive status. In the tail suspension test, each mouse was suspended by its tail and secured by adhesive tape to the suspension bar. A blinded observer monitored the test for 6 min and recorded the immobility time.
In another acute tail suspension test, mice were injected intraperitoneally with YM022 (3 μg/kg or 30 μg/kg), YF476 (3 μg/kg or 30 μg/kg) or saline 30 minutes before the test. The tail suspension test was then performed as described above.

[6] = test system: spared nerve injury (SNI) mice; assay: Body weight of SNI mice; assay type: in vivo, mouse; details: 30 ng/kg Day 7-Day 30, Day 40, vs SNI-saline, FIG. 1B
Source text: as §1, §2, §3

[7] = test system: spared nerve injury (SNI) mice; assay: Von Frey filament test in SNI mice; assay type: in vivo, mouse; details: Day 8 (after drug injection), FIG. 2
Source text: as §1
For the SNI surgery, the mice were anesthetized by intraperitoneal injection of ketamine (100 mg/kg) and xylazine (15 mg/kg). The skin on the lateral surface of the left thigh was cleaned and incised, and then sterile scissors were used to expose three branches of the sciatic nerves: namely sural, common peroneal, and tibial nerves. […]
The Von Frey filament test was used 1 day before the surgery (Day-1) or on Day 1, Day 7 (after drug injection), Day 8 (after drug injection) to estimate the sensitivity of the mice to the mechanical stimulation. […] Response in three out of five stimuli was regarded as a positive reaction and the threshold level was recorded (FIG. 2).

## CNc1cccc(NC(=O)N[C@@H]2N=C(c3ccccn3)c3ccccc3N(CC(=O)C(C)(C)C)C2=O)c1 [YF476]
CCK1 receptor
  IC50: 500 nM
[1]
  immobile time in tail suspension test: reduced immobile time
CCK2 receptor [2]
  IC50: 0.11 nM
Mice [3]
  immobile time in forced swim test: less immobile time
CCK2 receptor [4]
  selectivity CCK2 versus CCK1 receptor: selectively inhibit CCK2 receptors
Mice [5]
  immobile time in acute tail suspension test: less immobile time
[6]
  body weight: increased body weight
[7]
  mechanical threshold in Von Frey filament test: higher mechanical threshold

## Cc1cccc(NC(=O)N[C@@H]2N=C(c3ccccc3)c3ccccc3N(CC(=O)c3ccccc3C)C2=O)c1 [YM022]
CCK1 receptor
  IC50: 63 nM
[1]
  immobile time in tail suspension test: reduced immobile time
CCK2 receptor [2]
  IC50: 0.07 nM
Mice [3]
  immobile time in forced swim test: less immobile time
CCK2 receptor [4]
  selectivity CCK2 versus CCK1 receptor: selectively inhibit CCK2 receptors
Mice [5]
  immobile time in acute tail suspension test: less immobile time
[6]
  body weight: increased body weight
[7]
  mechanical threshold in Von Frey filament test: higher mechanical threshold
